In ChEMBL document CHEMBL1140747, “Discovery of potent and selective dipeptidyl peptidase IV inhibitors derived from beta-aminoamides bearing subsituted triazolopiperazines” (J Med Chem, 2008):

Legend:
[1] = biological target: Dipeptidyl peptidase 4 (Homo sapiens, UniProt P27487)
[2] = biological target: Xaa-Pro aminopeptidase 1 (Homo sapiens, UniProt Q9NQW7); assay: Inhibition of amino peptidase P
[3] = biological target: T1, Xaa-Pro dipeptidase (Homo sapiens, UniProt P12955); assay: Inhibition of prolidase
T1 sequence (P12955 whole entry): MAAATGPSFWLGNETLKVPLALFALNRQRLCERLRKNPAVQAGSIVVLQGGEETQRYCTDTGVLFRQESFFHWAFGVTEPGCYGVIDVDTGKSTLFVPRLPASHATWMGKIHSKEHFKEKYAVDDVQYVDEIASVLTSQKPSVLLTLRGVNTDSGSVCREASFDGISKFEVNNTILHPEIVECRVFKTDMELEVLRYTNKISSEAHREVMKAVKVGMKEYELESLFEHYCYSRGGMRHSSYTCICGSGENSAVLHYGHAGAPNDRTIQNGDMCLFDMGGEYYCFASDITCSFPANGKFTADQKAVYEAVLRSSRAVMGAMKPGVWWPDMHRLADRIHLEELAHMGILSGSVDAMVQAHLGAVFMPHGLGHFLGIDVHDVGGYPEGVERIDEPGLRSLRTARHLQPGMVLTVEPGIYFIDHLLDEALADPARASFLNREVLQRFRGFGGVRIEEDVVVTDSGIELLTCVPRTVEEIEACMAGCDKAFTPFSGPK

[4] = biological target: Dipeptidyl peptidase 2 (Homo sapiens, UniProt Q9UHL4); assay: Inhibition of QPP
[5] = biological target: Dipeptidyl peptidase 9 (Homo sapiens, UniProt Q86TI2); assay: Inhibition of DPP9
[6] = biological target: Dipeptidyl peptidase 8 (Homo sapiens, UniProt Q6V1X1); assay: Inhibition of DPP8
[7] = biological target: T2, Prolyl endopeptidase FAP (Homo sapiens, UniProt Q12884); assay: Inhibition of FAP
T2 sequence (Q12884 whole entry): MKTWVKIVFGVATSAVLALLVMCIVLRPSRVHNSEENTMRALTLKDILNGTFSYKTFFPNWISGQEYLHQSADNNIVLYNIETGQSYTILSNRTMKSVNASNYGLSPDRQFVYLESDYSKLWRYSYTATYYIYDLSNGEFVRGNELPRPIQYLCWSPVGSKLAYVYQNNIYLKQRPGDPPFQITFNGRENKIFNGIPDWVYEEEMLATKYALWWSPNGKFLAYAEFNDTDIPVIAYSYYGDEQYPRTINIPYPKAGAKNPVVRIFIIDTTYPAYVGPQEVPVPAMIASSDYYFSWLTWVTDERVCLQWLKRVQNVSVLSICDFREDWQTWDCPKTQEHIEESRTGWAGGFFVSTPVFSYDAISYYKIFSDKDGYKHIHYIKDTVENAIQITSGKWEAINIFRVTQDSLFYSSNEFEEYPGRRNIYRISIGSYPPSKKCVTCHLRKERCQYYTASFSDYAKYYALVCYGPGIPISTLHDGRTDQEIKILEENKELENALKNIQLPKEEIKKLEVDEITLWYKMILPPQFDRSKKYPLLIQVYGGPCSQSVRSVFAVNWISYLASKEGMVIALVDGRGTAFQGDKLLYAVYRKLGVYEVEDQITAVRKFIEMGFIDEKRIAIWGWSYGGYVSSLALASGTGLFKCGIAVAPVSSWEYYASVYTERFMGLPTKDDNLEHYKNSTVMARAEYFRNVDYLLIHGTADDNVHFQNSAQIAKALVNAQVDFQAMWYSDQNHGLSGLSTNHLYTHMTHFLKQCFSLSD

Dipeptidyl peptidase 4, sequence (P27487 whole entry): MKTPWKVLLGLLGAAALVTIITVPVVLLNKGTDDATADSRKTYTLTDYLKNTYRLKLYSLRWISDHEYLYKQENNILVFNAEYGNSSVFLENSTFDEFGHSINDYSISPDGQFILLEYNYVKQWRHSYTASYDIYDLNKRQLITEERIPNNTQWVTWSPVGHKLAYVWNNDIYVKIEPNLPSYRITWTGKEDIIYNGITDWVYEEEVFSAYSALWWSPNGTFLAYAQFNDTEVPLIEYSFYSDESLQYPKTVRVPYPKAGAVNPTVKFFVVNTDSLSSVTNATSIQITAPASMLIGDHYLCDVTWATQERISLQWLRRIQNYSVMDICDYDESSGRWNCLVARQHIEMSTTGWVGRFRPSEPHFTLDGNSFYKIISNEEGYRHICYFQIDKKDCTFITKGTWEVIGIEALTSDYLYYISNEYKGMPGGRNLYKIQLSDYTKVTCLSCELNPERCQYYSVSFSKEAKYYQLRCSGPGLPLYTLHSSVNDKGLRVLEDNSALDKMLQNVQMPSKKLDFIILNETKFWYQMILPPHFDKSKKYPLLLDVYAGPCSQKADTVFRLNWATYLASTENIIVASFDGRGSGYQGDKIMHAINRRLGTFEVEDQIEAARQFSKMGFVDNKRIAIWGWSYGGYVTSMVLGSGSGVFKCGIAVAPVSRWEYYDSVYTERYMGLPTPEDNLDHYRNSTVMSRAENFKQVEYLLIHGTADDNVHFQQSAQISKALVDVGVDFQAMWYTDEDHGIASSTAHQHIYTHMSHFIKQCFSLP
Dipeptidyl peptidase 8, sequence (Q6V1X1 whole entry): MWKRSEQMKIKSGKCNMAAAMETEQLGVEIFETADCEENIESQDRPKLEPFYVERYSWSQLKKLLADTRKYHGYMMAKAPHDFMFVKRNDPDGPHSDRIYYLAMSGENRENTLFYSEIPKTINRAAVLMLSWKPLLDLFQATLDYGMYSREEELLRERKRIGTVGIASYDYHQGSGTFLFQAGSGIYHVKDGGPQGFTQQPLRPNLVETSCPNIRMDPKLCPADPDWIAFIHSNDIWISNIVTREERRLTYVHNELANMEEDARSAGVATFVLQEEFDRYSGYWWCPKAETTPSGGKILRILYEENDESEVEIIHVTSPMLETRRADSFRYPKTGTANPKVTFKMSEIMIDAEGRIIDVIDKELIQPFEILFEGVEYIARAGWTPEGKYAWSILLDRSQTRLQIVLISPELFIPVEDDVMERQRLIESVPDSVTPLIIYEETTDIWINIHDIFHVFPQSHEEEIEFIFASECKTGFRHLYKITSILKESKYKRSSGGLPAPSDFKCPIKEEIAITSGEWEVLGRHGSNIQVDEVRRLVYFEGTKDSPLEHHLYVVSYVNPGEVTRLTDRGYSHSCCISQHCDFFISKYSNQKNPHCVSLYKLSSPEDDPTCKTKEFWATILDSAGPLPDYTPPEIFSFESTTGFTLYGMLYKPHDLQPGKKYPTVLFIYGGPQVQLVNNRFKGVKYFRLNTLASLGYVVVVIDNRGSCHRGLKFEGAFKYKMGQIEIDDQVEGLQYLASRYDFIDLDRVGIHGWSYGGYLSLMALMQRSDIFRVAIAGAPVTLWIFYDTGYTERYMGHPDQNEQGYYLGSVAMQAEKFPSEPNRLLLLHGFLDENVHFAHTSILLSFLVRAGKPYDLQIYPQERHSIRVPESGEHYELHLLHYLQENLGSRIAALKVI
Xaa-Pro aminopeptidase 1, sequence (Q9NQW7 whole entry): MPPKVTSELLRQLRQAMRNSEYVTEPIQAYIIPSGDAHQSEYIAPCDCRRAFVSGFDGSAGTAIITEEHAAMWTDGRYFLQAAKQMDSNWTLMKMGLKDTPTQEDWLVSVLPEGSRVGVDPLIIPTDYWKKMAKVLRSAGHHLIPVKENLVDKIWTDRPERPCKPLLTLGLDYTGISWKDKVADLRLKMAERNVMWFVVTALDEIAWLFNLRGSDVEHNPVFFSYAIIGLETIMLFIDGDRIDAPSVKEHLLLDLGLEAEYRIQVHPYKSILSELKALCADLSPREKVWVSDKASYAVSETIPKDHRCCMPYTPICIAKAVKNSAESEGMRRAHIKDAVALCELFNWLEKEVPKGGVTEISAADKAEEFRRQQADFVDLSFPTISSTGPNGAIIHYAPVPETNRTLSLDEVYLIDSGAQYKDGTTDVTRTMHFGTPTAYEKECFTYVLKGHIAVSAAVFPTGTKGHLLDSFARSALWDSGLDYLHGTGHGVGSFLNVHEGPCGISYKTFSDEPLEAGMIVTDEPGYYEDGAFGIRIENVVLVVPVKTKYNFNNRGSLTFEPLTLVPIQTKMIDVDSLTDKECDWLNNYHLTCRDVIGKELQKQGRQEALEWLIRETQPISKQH
Dipeptidyl peptidase 9, sequence (Q86TI2 whole entry): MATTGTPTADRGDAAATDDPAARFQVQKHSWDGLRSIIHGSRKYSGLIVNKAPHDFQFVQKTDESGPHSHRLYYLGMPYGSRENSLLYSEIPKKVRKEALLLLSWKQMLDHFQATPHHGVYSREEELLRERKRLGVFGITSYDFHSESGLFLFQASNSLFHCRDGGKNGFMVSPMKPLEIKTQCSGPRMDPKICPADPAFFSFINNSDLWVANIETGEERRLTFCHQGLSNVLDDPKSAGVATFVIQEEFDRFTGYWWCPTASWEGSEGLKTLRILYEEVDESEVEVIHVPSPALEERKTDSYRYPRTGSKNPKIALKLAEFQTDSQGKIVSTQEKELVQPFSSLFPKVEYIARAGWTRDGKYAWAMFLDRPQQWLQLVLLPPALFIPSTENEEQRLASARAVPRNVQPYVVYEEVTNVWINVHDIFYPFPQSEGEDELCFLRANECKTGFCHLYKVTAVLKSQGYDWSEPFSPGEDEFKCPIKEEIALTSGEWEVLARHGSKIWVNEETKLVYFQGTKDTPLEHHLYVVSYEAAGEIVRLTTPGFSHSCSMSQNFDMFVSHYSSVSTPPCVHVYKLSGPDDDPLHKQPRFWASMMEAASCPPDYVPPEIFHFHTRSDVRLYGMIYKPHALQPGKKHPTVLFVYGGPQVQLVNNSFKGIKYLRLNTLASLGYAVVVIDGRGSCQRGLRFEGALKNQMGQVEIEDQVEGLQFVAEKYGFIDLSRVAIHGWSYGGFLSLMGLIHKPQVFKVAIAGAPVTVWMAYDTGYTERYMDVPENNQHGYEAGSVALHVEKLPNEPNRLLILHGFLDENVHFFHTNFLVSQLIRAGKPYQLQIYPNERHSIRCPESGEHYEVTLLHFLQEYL

C[C@H]1Cn2c(nnc2C(F)(F)F)CN1C(=O)C[C@H](N)Cc1cc(F)c(F)cc1F
IC50 [1]: 0.091 µM
IC50 [2]: > 10 µM
IC50 [3]: > 10 µM
IC50 [4]: 74 µM
IC50 [5]: 53 µM
IC50 [6]: > 100 µM
IC50 [7]: > 10 µM

COc1ccc(CC2c3nnc(C(F)(F)F)n3CCN2C(=O)C[C@H](N)Cc2cc(F)c(F)cc2F)cc1 (stereo in doubt; 43a)
IC50 [1]: 0.32 µM
IC50 [2]: > 10 µM
IC50 [3]: > 10 µM
IC50 [4]: > 100 µM
IC50 [5]: > 100 µM
IC50 [6]: > 100 µM
IC50 [7]: > 10 µM

N[C@@H](CC(=O)N1CCn2c(nnc2C(F)(F)F)[C@@H]1Cc1ccc(F)cc1)Cc1cc(F)c(F)cc1F
IC50 [1]: 0.116 µM
IC50 [2]: > 10 µM
IC50 [3]: > 10 µM
IC50 [4]: 39 µM
IC50 [5]: > 100 µM
IC50 [6]: > 100 µM
IC50 [7]: > 10 µM

N[C@@H](CC(=O)N1CCn2c(nnc2C(F)(F)F)C1Cc1cc(C(F)(F)F)cc(C(F)(F)F)c1)Cc1cc(F)c(F)cc1F (stereo in doubt; 48a)
IC50 [1]: 0.587 µM
IC50 [2]: > 10 µM
IC50 [3]: > 10 µM
IC50 [4]: > 100 µM
IC50 [5]: > 100 µM
IC50 [6]: > 100 µM
IC50 [7]: > 10 µM

N[C@@H](CC(=O)N1CCn2c(nnc2C(F)(F)F)C1Cc1ccccc1C(F)(F)F)Cc1cc(F)c(F)cc1F (stereo in doubt; 44b)
IC50 [1]: 0.00031 µM
IC50 [2]: > 10 µM
IC50 [3]: > 10 µM
IC50 [4]: 41 µM
IC50 [5]: > 100 µM
IC50 [6]: 8 µM
IC50 [7]: > 10 µM

CC1c2nnc(C(F)(F)F)n2C(C)CN1C(=O)C[C@H](N)Cc1cc(F)c(F)cc1F (stereo in doubt; 16d)
IC50 [1]: 0.011 µM
IC50 [2]: > 10 µM
IC50 [3]: > 10 µM
IC50 [4]: > 100 µM
IC50 [5]: 62 µM
IC50 [6]: 44 µM
IC50 [7]: > 10 µM

N[C@@H](CC(=O)N1CCn2c(nnc2C(F)(F)F)C1C(O)c1ccc(F)cc1)Cc1cc(F)c(F)cc1F (stereo in doubt; 47d)
IC50 [1]: 0.0005 µM
IC50 [2]: > 10 µM
IC50 [3]: > 10 µM
IC50 [4]: 41 µM
IC50 [5]: > 100 µM
IC50 [6]: 0.628 µM
IC50 [7]: > 10 µM

N[C@@H](CC(=O)N1CCn2c(nnc2C(F)(F)F)C1C(O)c1ccc(F)cc1)Cc1cc(F)c(F)cc1F (stereo in doubt; 47a)
IC50 [1]: 0.43 µM
IC50 [2]: > 10 µM
IC50 [3]: > 10 µM
IC50 [4]: 48 µM
IC50 [5]: > 100 µM
IC50 [6]: > 100 µM
IC50 [7]: > 10 µM

C=CCC1c2nnc(C(F)(F)F)n2CCN1C(=O)C[C@H](N)Cc1cc(F)c(F)cc1F (stereo in doubt; 40a)
IC50 [1]: 0.0015 µM
IC50 [2]: > 10 µM
IC50 [3]: > 10 µM
IC50 [4]: 33 µM
IC50 [5]: 41 µM
IC50 [6]: 3 µM
IC50 [7]: > 10 µM

N[C@@H](CC(=O)N1CCn2c(nnc2C(F)(F)F)C1CC(F)(F)F)Cc1cc(F)c(F)cc1F (stereo in doubt; 39a)
IC50 [1]: 0.123 µM
IC50 [2]: > 10 µM
IC50 [3]: > 10 µM
IC50 [4]: 30 µM
IC50 [5]: > 100 µM
IC50 [6]: > 100 µM
IC50 [7]: > 10 µM

C[C@@H]1Cn2c(nnc2C(F)(F)F)CN1C(=O)C[C@H](N)Cc1cc(F)c(F)cc1F
IC50 [1]: 0.042 µM
IC50 [2]: > 10 µM
IC50 [3]: > 10 µM
IC50 [4]: > 100 µM
IC50 [5]: > 100 µM
IC50 [6]: 75 µM
IC50 [7]: > 10 µM

N[C@@H](CC(=O)N1CCn2c(nnc2C(F)(F)F)C1Cc1ccccc1)Cc1cc(F)c(F)cc1F (stereo in doubt; 42b)
IC50 [1]: 0.00066 µM
IC50 [2]: > 10 µM
IC50 [3]: > 10 µM
IC50 [4]: 52 µM
IC50 [5]: 24 µM
IC50 [6]: 0.622 µM
IC50 [7]: > 10 µM

N[C@@H](CC(=O)N1CCn2c(nnc2C(F)(F)F)C1Cc1ccccn1)Cc1cc(F)c(F)cc1F (stereo in doubt; 49a)
IC50 [1]: 0.132 µM
IC50 [2]: > 10 µM
IC50 [3]: > 10 µM
IC50 [4]: > 100 µM
IC50 [5]: > 100 µM
IC50 [6]: > 100 µM
IC50 [7]: > 10 µM

COc1ccc(CC2c3nnc(C(F)(F)F)n3CCN2C(=O)C[C@H](N)Cc2cc(F)c(F)cc2F)cc1 (stereo in doubt; 43b)
IC50 [1]: 0.00043 µM
IC50 [2]: > 10 µM
IC50 [3]: > 10 µM
IC50 [4]: 57 µM
IC50 [5]: 18 µM
IC50 [6]: 0.367 µM
IC50 [7]: > 10 µM

N[C@@H](CC(=O)N1CCn2c(nnc2C(F)(F)F)C1Cc1ccccc1)Cc1cc(F)c(F)cc1F (single isomer, unassigned)
IC50 [1]: 0.14 µM
IC50 [2]: > 10 µM
IC50 [3]: > 10 µM
IC50 [4]: 87 µM
IC50 [5]: > 100 µM
IC50 [6]: > 100 µM
IC50 [7]: > 10 µM

N[C@@H](CC(=O)N1CCn2c(nnc2C(F)(F)F)C1C(O)c1ccc(F)cc1)Cc1cc(F)c(F)cc1F (stereo in doubt; 47c)
IC50 [1]: 0.09 µM
IC50 [2]: > 10 µM
IC50 [3]: > 10 µM
IC50 [4]: > 100 µM
IC50 [5]: > 100 µM
IC50 [6]: 40 µM
IC50 [7]: > 10 µM

CCC1c2nnc(C(F)(F)F)n2CCN1C(=O)C[C@H](N)Cc1cc(F)c(F)cc1F (stereo in doubt; 38b)
IC50 [1]: 0.005 µM
IC50 [2]: > 10 µM
IC50 [3]: > 10 µM
IC50 [4]: 47 µM
IC50 [5]: > 100 µM
IC50 [6]: 8 µM
IC50 [7]: > 10 µM

N[C@@H](CC(=O)N1CCNCC1)Cc1ccccc1F
IC50 [2]: > 10 µM
IC50 [3]: > 10 µM

CN(C)C(=O)CC1c2nnc(C(F)(F)F)n2CCN1C(=O)C[C@H](N)Cc1cc(F)c(F)cc1F (stereo in doubt; 41a)
IC50 [1]: 0.377 µM
IC50 [2]: > 10 µM
IC50 [3]: > 10 µM
IC50 [4]: > 100 µM
IC50 [5]: > 100 µM
IC50 [6]: > 100 µM
IC50 [7]: > 10 µM

CC1(C)CN(C(=O)C[C@H](N)Cc2cc(F)c(F)cc2F)Cc2nnc(C(F)(F)F)n21
IC50 [1]: 0.092 µM
IC50 [2]: > 10 µM
IC50 [3]: > 10 µM
IC50 [4]: 77 µM
IC50 [5]: 54 µM
IC50 [6]: 66 µM
IC50 [7]: > 10 µM

C[C@H]1c2nnc(C(F)(F)F)n2[C@@H](C)CN1C(=O)C[C@H](N)Cc1cc(F)c(F)cc1F
IC50 [1]: 0.209 µM
IC50 [2]: > 10 µM
IC50 [3]: > 10 µM
IC50 [4]: > 100 µM
IC50 [5]: > 100 µM
IC50 [6]: > 100 µM
IC50 [7]: > 10 µM

CCC1c2nnc(C(F)(F)F)n2CCN1C(=O)C[C@H](N)Cc1cc(F)c(F)cc1F (stereo in doubt; 38a)
IC50 [1]: 0.113 µM
IC50 [2]: > 10 µM
IC50 [3]: > 10 µM
IC50 [4]: > 100 µM
IC50 [5]: > 100 µM
IC50 [6]: > 100 µM
IC50 [7]: > 10 µM

N[C@@H](CC(=O)N1CCn2c(nnc2C(F)(F)F)C1Cc1ccccc1C(F)(F)F)Cc1cc(F)c(F)cc1F (stereo in doubt; 44a)
IC50 [1]: 0.438 µM
IC50 [2]: > 10 µM
IC50 [3]: > 10 µM
IC50 [4]: 83 µM
IC50 [5]: > 100 µM
IC50 [6]: > 100 µM
IC50 [7]: > 10 µM

C[C@H]1c2nnc(C(F)(F)F)n2CCN1C(=O)C[C@H](N)Cc1cc(F)c(F)cc1F
IC50 [1]: 0.088 µM
IC50 [2]: > 10 µM
IC50 [3]: > 10 µM
IC50 [4]: > 100 µM
IC50 [5]: > 100 µM
IC50 [6]: > 100 µM
IC50 [7]: > 10 µM

N[C@@H](CC(=O)N1CCNC[C@H]1Cc1ccccc1)Cc1ccccc1F
IC50 [2]: > 10 µM
IC50 [3]: > 10 µM

N[C@@H](CC(=O)N1CCn2c(nnc2C(F)(F)F)C1Cc1ccccc1F)Cc1cc(F)c(F)cc1F (stereo in doubt; 45a)
IC50 [1]: 0.131 µM
IC50 [2]: > 10 µM
IC50 [3]: > 10 µM
IC50 [4]: 76 µM
IC50 [5]: > 100 µM
IC50 [6]: > 100 µM
IC50 [7]: > 10 µM

CC1c2nnc(C(F)(F)F)n2C(C)CN1C(=O)C[C@H](N)Cc1cc(F)c(F)cc1F (stereo in doubt; 16a)
IC50 [1]: 0.1 µM
IC50 [2]: > 10 µM
IC50 [3]: > 10 µM
IC50 [4]: > 100 µM
IC50 [5]: > 100 µM
IC50 [6]: > 100 µM
IC50 [7]: > 10 µM

N[C@@H](CC(=O)N1CCn2c(nnc2C(F)(F)F)C1CC(F)(F)F)Cc1cc(F)c(F)cc1F (stereo in doubt; 39b)
IC50 [1]: 0.0057 µM
IC50 [2]: > 10 µM
IC50 [3]: > 10 µM
IC50 [4]: 60 µM
IC50 [5]: 26 µM
IC50 [6]: 1.6 µM
IC50 [7]: > 10 µM
